In patent US9096593B2, “Compounds and methods for kinase modulation, and indications therefor” (Plexxikon Inc., priority 2009, dated 2015):
Like-named read-outs stand apart in the source and are kept apart here.

What was measured:
[1] = Turbidity assay of relative solubility in aqueous buffers; assay type: physicochemical; conditions: for turbidity threshold (L, M, H) 1.4: pH 1.4 as headed (method: SGF pH 1.5); for turbidity threshold (L, M, H) 4.5: pH 4.5 (SIF); for turbidity threshold (L, M, H) 6.8: pH 6.8 (SIF); for turbidity threshold (L, M, H) 7.4: pH 7.4 (HEPES)
Experimental: As an indication of relative solubility, the turbidity of compounds in aqueous solutions is assessed. To assess possible compound properties in different physiological compartments, such as stomach, intestine, and blood, a series of aqueous buffers with varying pH is used. Thus each compound is diluted into four different physiologically relevant buffers and solution turbidity is measured by spectrophotometry.
Compounds are dissolved at a concentration of 25 mM in dimethyl sulfoxide, then serially diluted 1:1 into a 96 well plate, diluting 10 times in pure dimethyl sulfoxide, with the final well of each row a dimethyl sulfoxide blank. In an assay plate, 99 μL of appropriate buffer is added to each well, and 1 μL of each sample dilution is added to the buffer, achieving a range of final total concentrations in aqueous solutions having different pH. The buffers used are Simulated Gastric Fluid (SGF-pH 1.5) 0.5M NaCl, pH 1.5; Simulated Intestinal fluid (SIF-pH 4.5 and pH 6.8) 0.05M NaH2PO4, pH 4.5 and 6.8; and Hepes Buffer (HEPES-pH 7.4) 10 mM HEPES, 150 mM NaCl, pH 7.4. Control compounds pyrene, estriol and propranolol HCl are also assessed. Plates are spun and then mixed for 1 minute, and the absorbance is read using a Tecan Safire II to read wavelengths in the visible range (490, 535, and 650 nm) at four locations per well, reflecting the degree of turbidity present. The average optical density for each wavelength in each well is graphed vs. compound concentration, and the concentration at which the curve crosses a threshold O.D. of 0.01 for each wavelength is reported as the endpoint turbidity assay result. The average of the three wavelengths is used to compare turbidity of compounds. Compounds are considered to have low solubility if the threshold concentration is <31.3 μM, moderate solubility if the threshold concentration is 31.3 μM to 250 μM, and high solubility if the threshold concentration is >250 μM.

[2] = target: CYP2C19 (Homo sapiens (Human), UniProt P33261); test: CYP enzyme inhibition, fluorescent substrate
How it was run: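 […]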

Sequence of CYP2C19 (P33261 whole entry): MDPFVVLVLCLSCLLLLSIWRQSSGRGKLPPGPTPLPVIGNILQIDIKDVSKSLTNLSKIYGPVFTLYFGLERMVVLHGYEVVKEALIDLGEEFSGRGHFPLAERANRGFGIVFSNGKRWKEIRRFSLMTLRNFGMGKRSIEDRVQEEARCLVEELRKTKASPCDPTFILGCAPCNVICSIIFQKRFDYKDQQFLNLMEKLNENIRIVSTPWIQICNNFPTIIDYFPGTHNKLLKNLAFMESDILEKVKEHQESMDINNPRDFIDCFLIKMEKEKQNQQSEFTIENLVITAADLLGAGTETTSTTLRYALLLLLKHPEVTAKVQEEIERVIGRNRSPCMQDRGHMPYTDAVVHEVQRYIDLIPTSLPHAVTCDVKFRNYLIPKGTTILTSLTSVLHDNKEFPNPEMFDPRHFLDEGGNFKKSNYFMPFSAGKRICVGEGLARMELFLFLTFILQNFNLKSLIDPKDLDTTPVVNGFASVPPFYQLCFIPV

In the case of `COc1ccc(CNc2ncc(Cc3c[nH]c4ncc(C)cc34)cc2C)cn1` [Compound P-1554, (6-Methoxy-pyridin-3-ylmethyl)-[3-methyl-5-(5-methyl-1H-pyrrolo[2,3-b]pyridin-3-ylmethyl)-pyridin-2-yl]-amine], the “turbidity threshold (L, M, H) 1.4” value [1] is reported as “H (high solubility if the threshold concentration is >250 μM)”, the “turbidity threshold (L, M, H) 4.5” value [1] is reported as “H (high solubility if the threshold concentration is >250 μM)” and the “turbidity threshold (L, M, H) 6.8” value [1] is reported as “M (moderate solubility if the threshold concentration is 31.3 μM to 250 μM)”. The “turbidity threshold (L, M, H) 7.4” value [1] was “M (moderate solubility if the threshold concentration is 31.3 μM to 250 μM)”.

In the case of `COc1ccc(CNc2ncc(Cc3c[nH]c4ncc(C)cc34)cc2F)cn1` [Compound P-1562, [3-Fluoro-5-(5-methyl-1H-pyrrolo[2,3-b]pyridin-3-ylmethyl)-pyridin-2-yl]-(6-methoxy-pyridin-3-ylmethyl)-amine], the IC50 ([2]; read-out: Cyp IC50 (μM) 2C19) is reported as greater than 10 µM, the “turbidity threshold (L, M, H) 1.4” value [1] is reported as “H (high solubility if the threshold concentration is >250 μM)” and the “turbidity threshold (L, M, H) 4.5” value [1] is reported as “H (high solubility if the threshold concentration is >250 μM)”. The “turbidity threshold (L, M, H) 6.8” value [1] was “M (moderate solubility if the threshold concentration is 31.3 μM to 250 μM)” and the “turbidity threshold (L, M, H) 7.4” value [1] was “M (moderate solubility if the threshold concentration is 31.3 μM to 250 μM)”.

With `COc1ccc(CNc2ccc(Cc3c[nH]c4ncc(F)cc34)c(F)n2)cn1` [Compound P-1622, [6-Fluoro-5-(5-fluoro-1H-pyrrolo[2,3-b]pyridin-3-ylmethyl)-pyridin-2-yl]-(6-methoxy-pyridin-3-ylmethyl)-amine] the “turbidity threshold (L, M, H) 1.4” value [1] was “H (high solubility if the threshold concentration is >250 μM)”, the “turbidity threshold (L, M, H) 4.5” value [1] was “M (moderate solubility if the threshold concentration is 31.3 μM to 250 μM)” and the “turbidity threshold (L, M, H) 6.8” value [1] was “M (moderate solubility if the threshold concentration is 31.3 μM to 250 μM)”. For the same compound, the “turbidity threshold (L, M, H) 7.4” value [1] was “M (moderate solubility if the threshold concentration is 31.3 μM to 250 μM)”.

For `COc1ncc(F)cc1CNc1ccc(Cc2c[nH]c3ncc(NC(C)=O)cc23)c(F)n1` [Compound P-1669, N-(3-{2-fluoro-6-[(5-fluoro-2-methoxy-pyridin-3-ylmethyl)-amino]-pyridin-3-ylmethyl}-1H-pyrrolo[2,3-b]pyridin-5-yl)-acetamide], the IC50 ([2]; read-out: Cyp IC50 (μM) 2C19) was greater than 10 µM, the “turbidity threshold (L, M, H) 1.4” value [1] was “M (moderate solubility if the threshold concentration is 31.3 μM to 250 μM)” and the “turbidity threshold (L, M, H) 4.5” value [1] was “M (moderate solubility if the threshold concentration is 31.3 μM to 250 μM)”. The “turbidity threshold (L, M, H) 6.8” value [1] was “M (moderate solubility if the threshold concentration is 31.3 μM to 250 μM)” and the “turbidity threshold (L, M, H) 7.4” value [1] was “M (moderate solubility if the threshold concentration is 31.3 μM to 250 μM)”.

For `CS(=O)(=O)Nc1cnc2[nH]cc(Cc3ccc(NCc4ccc(Cl)nc4)nc3F)c2c1` [Compound P-1679, N-(3-{6-[(6-Chloro-pyridin-3-ylmethyl)-amino]-2-fluoro-pyridin-3-ylmethyl}-1H-pyrrolo[2,3-b]pyridin-5-yl)-methanesulfonamide], the “turbidity threshold (L, M, H) 1.4” value [1] was “M (moderate solubility if the threshold concentration is 31.3 μM to 250 μM)”, the “turbidity threshold (L, M, H) 4.5” value [1] was “L (low solubility if the threshold concentration is <31.3 μM)” and the “turbidity threshold (L, M, H) 6.8” value [1] was “L (low solubility if the threshold concentration is <31.3 μM)”. The “turbidity threshold (L, M, H) 7.4” value [1] was “L (low solubility if the threshold concentration is <31.3 μM)”.

For `COc1ncccc1CNc1ccc(Cc2c[nH]c3ncc(C)cc23)c(F)n1` [Compound P-2052, [6-Fluoro-5-(5-methyl-1H-pyrrolo[2,3-b]pyridin-3-ylmethyl)-pyridin-2-yl]-(2-methoxy-pyridin-3-ylmethyl)-amine], the “turbidity threshold (L, M, H) 1.4” value [1] was “H (high solubility if the threshold concentration is >250 μM)”, the “turbidity threshold (L, M, H) 4.5” value [1] was “L (low solubility if the threshold concentration is <31.3 μM)” and the “turbidity threshold (L, M, H) 6.8” value [1] was “L (low solubility if the threshold concentration is <31.3 μM)”. For the same compound, the “turbidity threshold (L, M, H) 7.4” value [1] was “L (low solubility if the threshold concentration is <31.3 μM)”.

With `FC(F)(F)c1ccncc1CNc1ccc(Cc2c[nH]c3ncc(Cl)cc23)cn1` [Compound P-2063, [5-(5-Chloro-1H-pyrrolo[2,3-b]pyridin-3-ylmethyl)-pyridin-2-yl]-(4-trifluoromethyl-pyridin-3-ylmethyl)-amine] the IC50 [2] was 5 to 10 µM.

With `COc1ncc(F)cc1CNc1ncc(Cc2c[nH]c3ncc(Cl)cc23)cn1` [Compound P-2064, [5-(5-Chloro-1H-pyrrolo[2,3-b]pyridin-3-ylmethyl)-pyrimidin-2-yl]-(5-fluoro-2-methoxy-pyridin-3-ylmethyl)-amine] the “turbidity threshold (L, M, H) 1.4” value [1] was “H (high solubility if the threshold concentration is >250 μM)”, the “turbidity threshold (L, M, H) 4.5” value [1] was “M (moderate solubility if the threshold concentration is 31.3 μM to 250 μM)” and the “turbidity threshold (L, M, H) 6.8” value [1] was “L (low solubility if the threshold concentration is <31.3 μM)”. For the same compound, the “turbidity threshold (L, M, H) 7.4” value [1] was “L (low solubility if the threshold concentration is <31.3 μM)”.

With `Cc1cnc2[nH]cc(Cc3cnc(NCc4cccc(C)n4)nc3)c2c1` [Compound P-2079, (6-Methyl-pyridin-2-ylmethyl)-[5-(5-methyl-1H-pyrrolo[2,3-b]pyridin-3-ylmethyl)-pyrimidin-2-yl]-amine] the IC50 [2] was 5 to 10 µM.

`Cc1cnc2[nH]cc(Cc3cnc(NCc4cccc(N5CCOCC5)n4)nc3)c2c1` [Compound P-2081, [5-(5-Methyl-1H-pyrrolo[2,3-b]pyridin-3-ylmethyl)-pyrimidin-2-yl]-(6-morpholin-4-yl-pyridin-2-ylmethyl)-amine] gave an IC50 ([2]; read-out: Cyp IC50 (μM) 2C19) of less than 5 µM.

`Cc1cnc2[nH]cc(Cc3cnc(NCc4cccc(N5CCCC5)n4)nc3)c2c1` [Compound P-2082, [5-(5-Methyl-1H-pyrrolo[2,3-b]pyridin-3-ylmethyl)-pyrimidin-2-yl]-(6-pyrrolidin-1-yl-pyridin-2-ylmethyl)-amine] showed an IC50 ([2]; read-out: Cyp IC50 (μM) 2C19) of less than 5 µM.

Compound `Cc1cnc2[nH]cc(Cc3ccc(NCc4ccc(Cl)nc4)nc3F)c2c1` [Compound P-2088, (6-Chloro-pyridin-3-ylmethyl)-[6-fluoro-5-(5-methyl-1H-pyrrolo[2,3-b]pyridin-3-ylmethyl)-pyridin-2-yl]-amine] has an IC50 ([2]; read-out: Cyp IC50 (μM) 2C19) of less than 5 µM.

With `Cc1cnc2[nH]cc(Cc3ccc(NCc4cccnc4F)nc3F)c2c1` [Compound P-2103, [6-Fluoro-5-(5-methyl-1H-pyrrolo[2,3-b]pyridin-3-ylmethyl)-pyridin-2-yl]-(2-fluoro-pyridin-3-ylmethyl)-amine] the IC50 ([2]; read-out: Cyp IC50 (μM) 2C19) was less than 5 µM.

For `Cc1cnc2[nH]cc(Cc3ccc(NCc4ccnc(F)c4)nc3F)c2c1` [Compound P-2118, [6-Fluoro-5-(5-methyl-1H-pyrrolo[2,3-b]pyridin-3-ylmethyl)-pyridin-2-yl]-(2-fluoro-pyridin-4-ylmethyl)-amine], the IC50 ([2]; read-out: Cyp IC50 (μM) 2C19) was less than 5 µM.

Compound `Cc1ccc(CNc2ccc(Cc3c[nH]c4ncc(C)cc34)c(F)n2)nc1` [Compound P-2131, [6-Fluoro-5-(5-methyl-1H-pyrrolo[2,3-b]pyridin-3-ylmethyl)-pyridin-2-yl]-(5-methyl-pyridin-2-ylmethyl)-amine] has an IC50 [2] of 5 to 10 µM.

`COc1ncccc1CNc1ncc(Cc2c[nH]c3ncc(C)cc23)cn1` [Compound P-2139, (2-Methoxy-pyridin-3-ylmethyl)-[5-(5-methyl-1H-pyrrolo[2,3-b]pyridin-3-ylmethyl)-pyrimidin-2-yl]-amine] showed an IC50 ([2]; read-out: Cyp IC50 (μM) 2C19) greater than 10 µM.

Compound `COc1cnc2[nH]cc(Cc3cnc(NCc4ccc(C(F)(F)F)nc4)c(F)c3)c2c1` [Compound P-2147, [3-Fluoro-5-(5-methoxy-1H-pyrrolo[2,3-b]pyridin-3-ylmethyl)-pyridin-2-yl]-(6-trifluoromethyl-pyridin-3-ylmethyl)-amine] has an IC50 ([2]; read-out: Cyp IC50 (μM) 2C19) of less than 5 µM.
